Source: ChEMBL document CHEMBL2203195, “Synthesis and antibacterial activity of new fluoroquinolones containing a cis- or trans-cyclohexane moiety” (2012)
Values after ≈ are worked out from the molar mass of the structure shown.

What was measured:
Assay type in all cases: functional
[1] = test system: Pseudomonas aeruginosa; test: Antibacterial activity against Pseudomonas aeruginosa CMCC 10104 after 24 hrs by agar dilution method; conditions: CMCC 10104, 24 h
[2] = test system: Escherichia coli; test: Antibacterial activity against Escherichia coli CMCC 44103 after 24 hrs by agar dilution method; conditions: CMCC 44103, 24 h
[3] = test system: Staphylococcus aureus; test: Antibacterial activity against Staphylococcus aureus CMCC 26003 after 24 hrs by agar dilution method; conditions: CMCC 26003, 24 h

| SMILES | MIC [1] [µg/mL] | MIC [2] [µg/mL] | MIC [3] [µg/mL] |
| --- | --- | --- | --- |
| C[C@H]1COc2c(NC(=O)[C@H]3CC[C@H](COc4ccccc4)CC3)c(F)cc3c(=O)c(C(=O)O)cn1c23 | > 32 | 16 (≈ 32.4 µM) | > 32 |
| Cc1cccc(C)c1OC[C@H]1CC[C@H](C(=O)Nc2c(F)cc3c(=O)c(C(=O)O)cn4c3c2OC[C@@H]4C)CC1 | > 32 | > 32 | > 32 |
| C[C@H]1COc2c(NC(=O)[C@H]3CC[C@H](COc4cccc(F)c4F)CC3)c(F)cc3c(=O)c(C(=O)O)cn1c23 | > 32 | > 32 | 32 (≈ 60.3 µM) |
| C[C@H]1COc2c(NC(=O)[C@H]3CC[C@H](COc4ccc([N+](=O)[O-])cc4)CC3)c(F)cc3c(=O)c(C(=O)O)cn1c23 | > 32 | > 32 | > 32 |
| C[C@H]1COc2c(NC(=O)[C@H]3CC[C@@H](COc4ccccc4)CC3)c(F)cc3c(=O)c(C(=O)O)cn1c23 | > 32 | 8 (≈ 16.2 µM) | > 32 |
| Cc1cccc(C)c1OC[C@H]1CC[C@@H](C(=O)Nc2c(F)cc3c(=O)c(C(=O)O)cn4c3c2OC[C@@H]4C)CC1 | > 32 | > 32 | > 32 |
| C[C@H]1COc2c(NC(=O)[C@H]3CC[C@@H](COc4cccc(F)c4F)CC3)c(F)cc3c(=O)c(C(=O)O)cn1c23 | 1 (≈ 1.89 µM) | > 32 | 2 (≈ 3.77 µM) |
| C[C@H]1COc2c(NC(=O)[C@H]3CC[C@@H](COc4ccc([N+](=O)[O-])cc4)CC3)c(F)cc3c(=O)c(C(=O)O)cn1c23 | > 32 | > 32 | > 32 |
| COc1c(NC(=O)[C@H]2CC[C@H](COc3ccccc3)CC2)c(F)cc2c(=O)c(C(=O)O)cn(C3CC3)c12 | > 32 | > 32 | > 32 |
| COc1c(NC(=O)[C@H]2CC[C@H](COc3c(C)cccc3C)CC2)c(F)cc2c(=O)c(C(=O)O)cn(C3CC3)c12 | > 32 | > 32 | > 32 |
| COc1c(NC(=O)[C@H]2CC[C@H](COc3cccc(F)c3F)CC2)c(F)cc2c(=O)c(C(=O)O)cn(C3CC3)c12 | > 32 | > 32 | > 32 |
| COc1c(NC(=O)[C@H]2CC[C@H](COc3ccc([N+](=O)[O-])cc3)CC2)c(F)cc2c(=O)c(C(=O)O)cn(C3CC3)c12 | > 32 | > 32 | > 32 |
| COc1c(NC(=O)[C@H]2CC[C@@H](COc3ccccc3)CC2)c(F)cc2c(=O)c(C(=O)O)cn(C3CC3)c12 | > 32 | > 32 | 4 (≈ 7.87 µM) |
| COc1c(NC(=O)[C@H]2CC[C@@H](COc3c(C)cccc3C)CC2)c(F)cc2c(=O)c(C(=O)O)cn(C3CC3)c12 | > 32 | > 32 | > 32 |
| COc1c(NC(=O)[C@H]2CC[C@@H](COc3cccc(F)c3F)CC2)c(F)cc2c(=O)c(C(=O)O)cn(C3CC3)c12 | > 32 | > 32 | > 32 |
| COc1c(NC(=O)[C@H]2CC[C@@H](COc3ccc([N+](=O)[O-])cc3)CC2)c(F)cc2c(=O)c(C(=O)O)cn(C3CC3)c12 | 2 (≈ 3.61 µM) | 0.25 (≈ 0.452 µM) | 1 (≈ 1.81 µM) |
| CCn1cc(C(=O)O)c(=O)c2cc(F)c(NC(=O)[C@H]3CC[C@H](COc4ccccc4)CC3)c(F)c21 | > 32 | > 32 | > 32 |
| CCn1cc(C(=O)O)c(=O)c2cc(F)c(NC(=O)[C@H]3CC[C@H](COc4cccc(F)c4F)CC3)c(F)c21 | > 32 | > 32 | > 32 |
| CCn1cc(C(=O)O)c(=O)c2cc(F)c(NC(=O)[C@H]3CC[C@H](COc4ccc([N+](=O)[O-])cc4)CC3)c(F)c21 | > 32 | > 32 | > 32 |
| CCn1cc(C(=O)O)c(=O)c2cc(F)c(NC(=O)[C@H]3CC[C@@H](COc4ccccc4)CC3)c(F)c21 | > 32 | > 32 | > 32 |
| CCn1cc(C(=O)O)c(=O)c2cc(F)c(NC(=O)[C@H]3CC[C@@H](COc4c(C)cccc4C)CC3)c(F)c21 | > 32 | > 32 | > 32 |
| CCn1cc(C(=O)O)c(=O)c2cc(F)c(NC(=O)[C@H]3CC[C@@H](COc4cccc(F)c4F)CC3)c(F)c21 | > 32 | > 32 | > 32 |
| CCn1cc(C(=O)O)c(=O)c2cc(F)c(NC(=O)[C@H]3CC[C@@H](COc4ccc([N+](=O)[O-])cc4)CC3)c(F)c21 | > 32 | > 32 | 4 (≈ 7.55 µM) |
| CCn1cc(C(=O)O)c(=O)c2cc(F)c(NC(=O)[C@H]3CC[C@H](COc4c(C)cccc4C)CC3)c(F)c21 | > 32 | > 32 | > 32 |
| CCn1cc(C(=O)O)c(=O)c2cc(F)c(N3CCNC(C)C3)c(F)c21 (stereo not given) [LOMEFLOXACIN] | 8 (≈ 22.8 µM) | 2 (≈ 5.69 µM) | 4 (≈ 11.4 µM) |
